# Reference: US20120071475A1, “UREA DERIVATIVES HAVING PI3K-INHIBITING ACTIVITY” (SHIONOGI & CO., LTD., priority 2009, published 2012)
# Legend:
# [1] = molecular target: T1, CYP3A4 (Homo sapiens, UniProt P08684); assay: CYP3A4 fluorescence MBI test; format: in vitro ADME; settings: difference in IC50 with 0 or 30 minutes pre-reaction; CYP3A4 expressed in E. coli, substrate 7-BFC
# T1 construct: host or cells: E. coli
# Procedure, shortened: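 E. coli-expressed CYP3A4 debenzylating 5.6 μmol/L 7-BFC to fluorescent 7-HFC (Ex 420/Em 535 nm) in K-Pi pH 7.4 at 25° C, 15 min reaction. NADPH pre-incubation of 0 or 30 min, with 10-fold dilution before reaction. IC50 from 0.625–20 μmol/L (6 points); (+) for an IC50 shift ≥5 μmol/L, (−) for ≤3 μmol/L.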
# [2] = BA test (oral absorbability, bioavailability); format: in vivo
# Experimental: An experimental material and a method for examining oral absorbability
# (1) Animals used: rats or mice were used. (2) Breeding condition: chow and sterilized tap water were allowed to be taken in freely. (3) Setting of a dosage and grouping: a predetermined dosage was administered orally or intravenously. Groups were formed as shown below. (A dosage varied depending on each compound)
# Oral administration 1-30 mg/kg (n=2 to 3)
# Intravenous administration 0.5-10 mg/kg (n=2 to 3)
# (4) Preparation of administered liquid: In oral administration, a solution or suspension was administered. In intravenous administration, after solubilization, the administration was performed. (5) Method of Administration: In oral administration, compulsory administration to the stomach was conducted using an oral probe. In intravenous administration, administration from the caudal vein was conducted using a syringe with an injection needle. (6) Evaluation item: Blood was chronologically collected, and then the drug concentration in blood plasma was measured using a LC/MS/MS. (7) Statistical analysis: With regard to a shift in plasma concentration, the plasma concentration-time area under the curve (AUC) was calculated using a nonlinear least-squares program WinNonlin®. Bioavailability (BA) was calculated from the AUCs of the oral administration group and the intravenous administration group, respectively.
# [3] = Metabolic stability test (pooled human liver microsome); format: in vitro ADME; settings: percentage of test compound remained after 30 minutes, pooled human liver microsome 0.5 mg protein/mL, 1 mmol/L NADPH, 37° C., compound 0.5 μM
# Procedure, shortened: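 Pooled human liver microsomes (0.5 mg protein/mL) incubated with compound and 1 mmol/L NADPH at 37° C. in pH 7.4 Tris buffer for 0 or 30 min. Parent quantified by LC/MS/MS after methanol/acetonitrile quench; value is % remaining at 30 min versus 0 min.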
# [4] = test system: AKT phosphorylation; assay: AKT phosphorylation inhibitory activity in MCP-1 stimulated THP-1 cells (sandwich ELISA); format: cell-based, Human; settings: Homo sapiens, compound at 1 μmol/L, MCP-1 stimulation, read-out: AKT phosphorylation inhibition ratio
# Procedure, shortened: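 THP-1 cells (6.7×10^6/mL in HBSS) were preincubated with compound at 1 μmol/L for 5 min at 37 °C, then stimulated for 60 s with HBSS containing 1.2 μg/mL MCP-1 and lysed. Phospho-Akt Ser473/AKT1 sandwich ELISA was read at A450. % inhibition: no compound = 100% activity, no MCP-1 = 0%.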
# [5] = molecular target: PI3Kγ (Homo sapiens, UniProt P48736); assay: PI3Kγ inhibitory activity (PI3-kinase HTRF assay, inhibition ratio); format: biochemical; settings: 0.5 h, compound at 10 μmol/L; read-out: PI3Kg Inhibition Ratio % (10 μM)
# Sequence of PI3Kγ (P48736 whole entry, species assumed): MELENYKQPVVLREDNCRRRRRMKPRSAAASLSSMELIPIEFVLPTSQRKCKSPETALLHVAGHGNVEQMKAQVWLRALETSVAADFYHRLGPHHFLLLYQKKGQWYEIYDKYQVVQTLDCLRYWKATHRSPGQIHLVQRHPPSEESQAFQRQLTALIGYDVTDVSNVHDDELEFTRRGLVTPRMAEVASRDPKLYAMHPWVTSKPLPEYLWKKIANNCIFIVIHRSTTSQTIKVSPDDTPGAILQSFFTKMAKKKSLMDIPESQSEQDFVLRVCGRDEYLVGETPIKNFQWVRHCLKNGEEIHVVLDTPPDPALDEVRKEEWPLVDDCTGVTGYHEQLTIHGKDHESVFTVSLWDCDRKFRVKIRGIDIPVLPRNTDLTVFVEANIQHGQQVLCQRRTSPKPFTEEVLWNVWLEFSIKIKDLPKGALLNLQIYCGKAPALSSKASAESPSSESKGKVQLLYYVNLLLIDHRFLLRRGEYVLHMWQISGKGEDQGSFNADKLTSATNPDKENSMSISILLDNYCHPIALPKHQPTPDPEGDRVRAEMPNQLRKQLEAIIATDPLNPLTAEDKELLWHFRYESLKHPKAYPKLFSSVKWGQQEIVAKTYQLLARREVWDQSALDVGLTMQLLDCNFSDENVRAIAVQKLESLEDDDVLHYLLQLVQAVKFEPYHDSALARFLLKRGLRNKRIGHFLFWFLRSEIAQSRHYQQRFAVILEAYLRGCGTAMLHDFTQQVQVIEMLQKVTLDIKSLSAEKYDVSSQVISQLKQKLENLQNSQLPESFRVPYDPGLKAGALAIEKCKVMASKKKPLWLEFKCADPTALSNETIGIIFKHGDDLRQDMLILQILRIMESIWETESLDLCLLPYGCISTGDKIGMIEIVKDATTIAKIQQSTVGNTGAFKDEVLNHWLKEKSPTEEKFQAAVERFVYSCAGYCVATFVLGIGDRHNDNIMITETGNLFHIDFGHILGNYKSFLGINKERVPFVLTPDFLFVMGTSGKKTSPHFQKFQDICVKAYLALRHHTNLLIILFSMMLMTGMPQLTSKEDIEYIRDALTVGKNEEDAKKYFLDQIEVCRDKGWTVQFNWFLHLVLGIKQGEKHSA
# Procedure, shortened: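 Compound at 10 μmol/L preincubated 10 min with PI3Kγ and PIP2 substrate, then reacted with ATP for 30 minutes at room temperature; the compound, substrate and ATP figures as printed (40 μmol/L each) are solution concentrations. HTRF 665/620 nm ratio read after 18 hours. Inhibition ratio calculated against no-compound (100%) and no-enzyme (0%) controls.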
# [6] = molecular target: T2, human ether-a-go-go related gene (hERG) channel (Homo sapiens, UniProt Q12809); assay: hERG test (whole-cell patch-clamp, IKr in HEK293 cells); format: cell-based; settings: inhibition of maximum tail current (IKr), HEK293 cell expressing hERG, compound 1 μM, 10 minutes; 1 µM
# T2 construct: expressed in transfected cells; host or cells: HEK293
# T2 sequence (Q12809 whole entry): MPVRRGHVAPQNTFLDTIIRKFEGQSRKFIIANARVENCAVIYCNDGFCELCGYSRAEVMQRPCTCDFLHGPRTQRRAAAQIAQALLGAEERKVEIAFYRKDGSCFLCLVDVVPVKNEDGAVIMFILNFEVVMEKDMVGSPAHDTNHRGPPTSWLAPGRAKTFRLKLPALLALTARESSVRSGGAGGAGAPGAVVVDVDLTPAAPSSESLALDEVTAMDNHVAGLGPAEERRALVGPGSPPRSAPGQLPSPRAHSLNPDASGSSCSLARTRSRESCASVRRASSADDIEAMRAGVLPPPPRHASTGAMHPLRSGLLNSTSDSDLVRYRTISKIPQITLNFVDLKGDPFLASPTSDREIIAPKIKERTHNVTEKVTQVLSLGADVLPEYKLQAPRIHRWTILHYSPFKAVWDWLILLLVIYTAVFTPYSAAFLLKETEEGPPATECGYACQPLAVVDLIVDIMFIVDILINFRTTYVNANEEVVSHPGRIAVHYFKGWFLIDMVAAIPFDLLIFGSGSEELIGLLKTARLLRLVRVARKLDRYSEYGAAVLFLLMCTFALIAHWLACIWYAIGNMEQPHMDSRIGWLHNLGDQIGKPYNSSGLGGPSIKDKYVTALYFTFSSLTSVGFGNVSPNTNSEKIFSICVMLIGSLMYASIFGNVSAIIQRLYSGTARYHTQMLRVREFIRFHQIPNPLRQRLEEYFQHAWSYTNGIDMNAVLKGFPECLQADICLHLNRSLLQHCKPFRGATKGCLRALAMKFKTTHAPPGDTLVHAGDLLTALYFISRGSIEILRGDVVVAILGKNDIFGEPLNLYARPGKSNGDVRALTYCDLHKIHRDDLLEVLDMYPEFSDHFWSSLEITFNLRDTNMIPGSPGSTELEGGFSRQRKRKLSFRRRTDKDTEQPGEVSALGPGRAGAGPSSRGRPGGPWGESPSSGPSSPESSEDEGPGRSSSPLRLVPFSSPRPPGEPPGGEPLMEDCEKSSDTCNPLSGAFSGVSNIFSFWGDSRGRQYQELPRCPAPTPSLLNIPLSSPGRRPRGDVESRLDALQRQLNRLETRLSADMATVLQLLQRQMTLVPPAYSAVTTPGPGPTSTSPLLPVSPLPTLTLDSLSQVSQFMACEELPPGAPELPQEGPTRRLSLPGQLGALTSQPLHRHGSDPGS
# Procedure, shortened: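 hERG-expressing HEK293 cells, automated whole-cell patch clamp: hold −80 mV, +50 mV for 2 s, then −50 mV for 2 s to record IKr tail current. Compound in extracellular solution (pH 7.4) for 10 min at room temperature; inhibition of maximum tail current calculated versus pre-application and compared with 0.1% DMSO vehicle.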
# T1 sequence (P08684 whole entry): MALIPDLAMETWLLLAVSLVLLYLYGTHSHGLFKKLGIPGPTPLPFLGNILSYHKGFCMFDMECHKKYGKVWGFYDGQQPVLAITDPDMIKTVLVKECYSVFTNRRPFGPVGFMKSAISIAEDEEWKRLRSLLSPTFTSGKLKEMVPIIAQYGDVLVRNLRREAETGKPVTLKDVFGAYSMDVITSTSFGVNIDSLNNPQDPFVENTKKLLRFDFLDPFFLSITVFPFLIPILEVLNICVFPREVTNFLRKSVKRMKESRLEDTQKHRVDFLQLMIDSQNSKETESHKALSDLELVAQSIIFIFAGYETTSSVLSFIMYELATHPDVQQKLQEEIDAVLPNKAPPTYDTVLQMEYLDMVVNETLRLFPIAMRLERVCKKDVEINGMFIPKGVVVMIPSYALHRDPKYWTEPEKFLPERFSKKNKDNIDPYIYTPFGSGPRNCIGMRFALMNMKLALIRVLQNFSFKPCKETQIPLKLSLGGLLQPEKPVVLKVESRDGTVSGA
"BA (Rat, 1 mg/kg, Methylcellulose suspension Oral Administration) [2]",hLMS_ox(at 0.5 μM) % [3],inhibition at 10 µM [5],Compound,MBI [1],inhibition at 1 µM [4],hERG(at 1 μM) % Inhibition [6]
40.9%,–,–,COc1cc(N2CCc3nc(NC(=O)Nc4ccccc4C(=O)NC(C)C)sc3C2)ccn1 [Compound I-52],"(−) (When 3 μmol/L or less, the compound is shown as (−))",–,–
–,82.6%,≥ 95%,COc1cc(N2CCc3nc(NC(=O)Nc4ccccc4C(=O)NC(C)C(O)C(F)(F)F)sc3C2)nc(OC)n1 (stereo not drawn) [Compound I-138],–,≥ 95%,2.8%
